Data from patent US7208517B1, “Endothelin antagonists” (Abbott Labortories, priority 1994, dated 2007).

Molecular target: T1, ETA Receptor (Rattus norvegicus, UniProt P26684)
T1 construct: endogenous in cells; host or cells: MMQ rat pituitary cells (membranes)
T1 sequence (P26684 21-426): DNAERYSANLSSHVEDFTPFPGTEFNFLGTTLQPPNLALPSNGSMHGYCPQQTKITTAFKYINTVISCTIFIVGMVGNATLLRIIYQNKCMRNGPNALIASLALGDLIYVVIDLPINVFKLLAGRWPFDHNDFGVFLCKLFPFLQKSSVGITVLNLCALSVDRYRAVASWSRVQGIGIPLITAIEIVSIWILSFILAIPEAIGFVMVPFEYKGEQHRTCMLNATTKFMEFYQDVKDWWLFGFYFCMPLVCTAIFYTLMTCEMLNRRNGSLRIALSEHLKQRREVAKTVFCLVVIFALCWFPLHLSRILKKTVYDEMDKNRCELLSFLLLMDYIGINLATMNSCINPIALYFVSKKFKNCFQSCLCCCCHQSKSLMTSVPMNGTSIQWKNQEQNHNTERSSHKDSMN
Test: [125I]ET-1 binding to membranes from MMQ cells (ETA receptor binding assay, Table 4)
Conditions: test compound at 1 μM; 0.1 nM [125I]ET-1, MMQ cell membranes, 4 hours at 25° C.
Protocol: Preparation of Membranes from MMQ Cells:
MMQ [MacLeod/MacQueen/Login cell line (prolactin secreting rat pituitary cells)] cells from 150 mL culture flasks were collected by centrifugation (1000×g for 10 min) and then homogenized in 25 mL of 10 mM Hepes (pH 7.4) containing 0.25 M sucrose and protease inhibitors [3 mM EDTA, 0.1 mM PMSF, and 5 μg/mL Pepstatin A] by a micro ultrasonic cell disrupter (Kontes). The mixture was centrifuged at 1000×g for 10 min. The supernatant was collected and centrifuged at 60,000×g for 60 min. The precipitate was resuspended in 20 mM Tris, pH 7.4 containing the above protease inhibitors and centrifuged again. The final pellet was resuspended in 20 mM Tris, pH 7.4 containing protease inhibitors and stored at −80° C. until used. Protein content was determined by the Bio-Rad dye-binding protein assay.
Binding assays were performed in 96-well microtiter plates pretreated with 0.1% BSA. […] After incubation, unbound ligands were separated from bound ligands by a vacuum filtration method using glass-fiber filter strips in PHD cell harvesters (Cambridge Technology, Inc., MA), followed by washing the filter strips with saline (1 mL) for three times. Nonspecific binding was determined in the presence of 1 μM ET-1.

Row | Structure (SMILES) | % Inhibition of ETA at 1 μM [%]
1 | COc1ccc(C2C(C(=O)O)C(c3ccc4c(c3)OCO4)CN2CC(=O)N2CCCC2)cc1 (stereo not drawn) [Example 17, trans,trans-2-(4-Methoxyphenyl)-4-(1,3-benzodioxol-5-yl)-1-(pyrrolidin-1-ylcarbonylmethyl)-pyrrolidine-3-carboxylic acid] | 73.9
2 | CCCCCN(CCCCC)C(=O)CN1CC(c2ccc3c(c2)OCO3)C(C(=O)O)C1c1ccc(OC)cc1 (stereo not drawn) [Example 35, trans,trans-2-(4-Methoxyphenyl)-4-(1,3-benzodioxol-5-yl)-1-(N,N-dipentylaminocarbonylmethyl)-pyrrolidine-3-carboxylic acid] | 91.8
3 | COCCN(CCOC)C(=O)CN1CC(c2ccc3c(c2)OCO3)C(C(=O)O)C1c1ccc(OC)cc1 (stereo not drawn) [Example 36, trans,trans-2-(4-Methoxyphenyl)-4-(1,3-benzodioxol-5-yl)-1-(N,N-di(2-methoxyethyl)aminocarbonylmethyl)-pyrrolidine-3-carboxylic acid] | 94.5
4 | CCCCOCCN1CC(c2ccc3c(c2)OCO3)C(C(=O)O)C1c1ccc(OC)cc1 (stereo not drawn) [Example 23, trans,trans-2-(4-Methoxyphenyl)-4-(1,3-benzodioxol-5-yl)-1-(2-butoxyethyl)-pyrrolidine-3-carboxylic acid] | 85.9
5 | COc1ccc(C2C(C(=O)O)C(c3ccc4c(c3)OCO4)CN2CC(=O)N(CCC(C)C)CCC(C)C)cc1 (stereo not drawn) [Example 34, trans,trans-2-(4-Methoxyphenyl)-4-(1,3-benzodioxol-5-yl)-1-(N,N-diisoamylaminocarbonylmethyl)-pyrrolidine-3carboxylic acid] | 95.5
6 | COc1ccc(C2C(C(=O)O)C(c3ccc4c(c3)OCO4)CN2CCOc2ccccc2)cc1 (stereo not drawn) [Example 21, trans,trans-2-(4-Methoxyphenyl)-4-(1,3-benzodioxol-5-yl)-1-(2-phenoxyethyl)-pyrrolidine-3-carboxylic acid] | 56.3
7 | CC[S+]([O-])CCN1CC(c2ccc3c(c2)OCO3)C(C(=O)O)C1c1ccc(OC)cc1 (stereo not drawn) [Example 57, trans,trans-2-(4-Methoxyphenyl)-4-(1,3-benzodioxol-5-yl)-1-(2-(ethylsulfinyl)ethyl)-pyrrolidine-3-carboxylic acid] | 93.2
8 | C#CCN(C)C(=O)CN1CC(c2ccc3c(c2)OCO3)C(C(=O)O)C1c1ccc(OC)cc1 (stereo not drawn) [Example 41, trans,trans-2-(4-Methoxyphenyl)-4-(1,3-benzodioxol-5-yl)-1-(N-methyl-N-(2-propynyl)aminocarbonylmethyl)-pyrrolidine-3-carboxylic acid] | 89.9
9 | CCCN(C)C(=O)CN1CC(c2ccc3cc[nH]c3c2)C(C(=O)O)C1c1ccc(OC)cc1 (stereo not drawn) [Example 143, trans,trans-1-(N-Methyl-N-propylaminocarbonylmethyl)-2-(4-methoxyphenyl)-4-(6-indolyl)pyrrolidine-3-carboxylic acid] | 20.6
10 | CCCN(C)C(=O)CN1CC(c2ccc3c(c2)CCC3)C(C(=O)O)C1c1ccc(OC)cc1 (stereo not drawn) [Example 142B, trans,trans-1-(N-Methyl-N-propylaminocarbonylmethyl)-2-(4-methoxyphenyl)-4-(5-indanyl)pyrrolidine-3-carboxylic acid] | 78.7
11 | CCCN(C)C(=O)CN1CC(c2ccc3c(c2)CCO3)C(C(=O)O)C1c1ccc(OC)cc1 (stereo not drawn) [Example 52, trans,trans-2-(4-Methoxyphenyl)-4-(2,3-dihydrobenzofuran-5-yl)-1-(N-methyl-N-propyl)aminocarbonylmethyl)-pyrrolidine-3-carboxylic acid] | 84.0
12 | CCCN(C)C(=O)CN1CC(c2cccc3occc23)C(C(=O)O)C1c1ccc(OC)cc1 (stereo not drawn) [Example 135B, trans,trans-1-(N-Methyl-N-propylaminocarbonylmethyl)-2-(4-methoxyphenyl)-4-(4-benzofuranyl)pyrrolidine-3-carboxylic acid] | 77.7

Continued, values first:

Row | % Inhibition of ETA at 1 μM [%] | Structure (SMILES)
13 | 94.4 | CCCCN(CCCC)C(=O)CN1CC(c2ccc3c(c2)OCO3)C(C(=O)O)C1c1cccc(F)c1 (stereo not drawn) [Example 167, trans,trans-1-(N,N-Di(n-butyl)aminocarbonylmethyl)-2-(3-fluorophenyl)-4-(1,3-benzodioxol-5-yl)pyrrolidine-3-carboxylic acid]
14 | 87.2 | CCCN(CCN1C[C@H](c2ccc3c(c2)OCO3)[C@@H](C(=O)O)[C@@H]1c1ccc(OC)cc1)S(=O)(=O)CC(C)C (relative stereo) [Example 303, trans,trans-2-(4-Methoxyphenyl)-4-(1,3-benzodioxol-5-yl)-1-(2-(N-propyl-N-(2-methylpropanesulfonyl)amino)ethyl)-pyrrolidine-3-carboxylic acid]
15 | 93.3 | CCCN(CCN1CC(c2ccc3c(c2)OCO3)C(C(=O)O)C1c1ccc(OC)cc1)S(=O)(=O)c1ccc([N+](=O)[O-])cc1 (stereo not drawn) [Example 298, trans,trans-2-(4-Methoxyphenyl)-4-(1,3-benzodioxol-5-yl)-1-(2-(N-propyl-N-(4-nitrobenzenesulfonyl)amino)ethyl)-pyrrolidine-3-carboxylic acid]
16 | 96.3 | CCCCN(CCCC)C(=O)CN1CC(c2ccc3c(c2)OCO3)C(C(=O)O)C1c1ccc(OC)c(F)c1 (stereo not drawn) [Example 313, trans—trans-2-(4-Methoxy-3-fluorophenyl)-4-(1,3-benzodioxol-5-yl)-1-[N,N-di(n-butyl)aminocarbonylmethyl]-pyrrolidine-3-carboxylic acid]
17 | 84.4 | CCCN(CCN1CC(c2ccc3c(c2)OCO3)C(C(=O)O)C1c1ccc(OC)cc1)C(=O)N(C)C (stereo not drawn) [Example 297, trans—trans-2-(4-Methoxyphenyl)-4-(1,3-benzodioxol-5-yl)-1-[2-(N-propyl-N-dimethylaminocarbonylamino)ethyl]-pyrrolidine-3-carboxylic acid]
18 | 80.5 | CCCCN(CCCC)C(=O)CN1CC(c2ccc(OC)cc2OC)C(C(=O)O)C1c1ccc(OC)cc1 (stereo not drawn) [Example 151, trans,trans-1-(N,N-Di(n-butyl)aminocarbonylmethyl)-2-(4-methoxyphenyl)-4-(2,4-dimethoxyphenyl)pyrrolidine-3-carboxylic acid]
19 | 91.6 | CCCCN(CCCC)C(=O)CN1CC(c2ccc3c(c2)OCO3)C(C(=O)O)C1c1ccccc1F (stereo not drawn) [Example 166, trans,trans-1-(N,N-Di(n-butyl)aminocarbonylmethyl)-2-(2-fluorophenyl)-4-(1,3-benzodioxol-5-yl)pyrrolidine-3-carboxylic acid]
20 | 54.1 | CCCCN(CCCC)C(=O)CN1CC(c2cccnc2)C(C(=O)O)C1c1ccc(OC)cc1 (stereo not drawn) [Example 165, trans,trans-1-(N,N-Di(n-butyl)aminocarbonylmethyl)-2-(4-methoxyphenyl)-4-(3-pyridyl)pyrrolidine-3-carboxylic acid]
21 | 87.4 | CCOC(=O)N(CC)CCN1CC(c2ccc3c(c2)OCO3)C(C(=O)O)C1c1ccc(OC)cc1 (stereo not drawn) [Example 305, trans—trans-2-(4-Methoxyphenyl)-4-(1,3-benzodioxol-5-yl)-1-[2-(N-ethyl-N-ethoxycarbonylamino)ethyl]-pyrrolidine-3-carboxylic acid]
22 | 87.1 | COc1ccc(C2C(C(=O)O)C(c3ccc4c(c3)OCO4)CN2CC(=O)N2CCc3ccccc3C2)cc1 (stereo not drawn) [Example 296, trans—trans-2-(4-Methoxyphenyl)-4-(1,3-benzodioxol-5-yl)-1-[1,2,3,4-tetrahydroisoquinolin-2-carbonylmethyl]-pyrrolidine-3-carboxylic acid]
23 | 92.6 | CCCCN(CCCC)C(=O)CN1CC(c2ccc3c(c2)OCO3)C(C(=O)O)C1c1ccoc1 (stereo not drawn) [Example 156, trans,trans-1-(N. N-Di(n-butyl)aminocarbonylmethyl)-2-(3-furyl)-4-(1,3-benzodioxol-5-yl)pyrrolidine-3-carboxylic acid]
24 | 86.0 | CCCCCS(=O)(=O)N(CCC)CCN1CC(c2ccc3c(c2)OCO3)C(C(=O)O)C1CCC (stereo not drawn) [Example 314, trans,trans-2-(Propyl)-4-(1,3-benzodioxol-5-yl)-1-(2-(N-propyl-pentanesulfonylamino)ethyl)pyrrolidine-3-carboxylic acid]

Same assay, conditions: test compound at 1 μM; 0.1 nM [125I]ET-1, MMQ cell membranes, 4 hours at 25° C.; read-out: % Inhibition of ETA at 1 μM

Row | inhibition at 1 µM [%] | Structure (SMILES)
25 | 93.1 | CCC[C@H](C(=O)N(CCC)CCC)N1C[C@H](c2ccc3c(c2)OCO3)[C@H](C(=O)O)[C@H]1c1ccc(OC)cc1 [Example 76, (2S,3S,4S)-2-(4-Methoxyphenyl)-4-(1,3-benzodioxol-5-yl)-1-((1R)-1-(N,N-dipropylaminocarbonyl)-1-butyl)pyrrolidine-3-carboxylic acid]
